The values below come from PubChem BioAssay (NCI).

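In this assay, cells in 96-well plates receive the compound at five concentrations for 48 hours. Endpoints are linearly interpolated between the surrounding concentrations. TGI marks complete inhibition of growth.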 Some results are limits rather than exact numbers.

For one test, the system named is NCI-H460 lung. The experiment in a line: inhibition of tumour cell growth, NCI panel, 48 h.
Consider `C=C(C)C(=O)OC1C/C(CO)=C\C(O)C/C(C)=C/C2OC(=O)C(=C)C21` (stereo not drawn), for which the TGI worked out at 35 µM.

Another test relates to LXFL 529 NSCLC. The test can be described thus: inhibition of tumour cell growth, NCI panel, 48 h.
For the compound `O=C(CC(=O)c1cccc2ccccc12)C(=O)Nc1ccc(Cl)cc1`, the TGI is over 100 µM.
In turn, `CCN(CC)CCSc1c2ccccc2nc2cc(NCC(=O)Nc3ccccc3-c3ccccc3NC(=O)CNc3ccc4c(SCCN(CC)CC)c5ccccc5nc4c3)ccc12` came in with a TGI of over 100 µM.
`Cc1ccc(S(=O)(=O)OC[C@@H]2CO2)cc1` yielded a TGI of over 100 µM.
Compound `C=C(C)C(=O)OC1C/C(CO)=C\C(O)C/C(C)=C/C2OC(=O)C(=C)C21` (stereo not drawn) had a TGI of 32.2 µM.

In another test the test system is SK-MEL-28 melanoma. The experiment in a line: inhibition of tumour cell growth, NCI panel, 48 h.
Compound `CCN(CC)CCSc1c2ccccc2nc2cc(NCC(=O)Nc3ccccc3-c3ccccc3NC(=O)CNc3ccc4c(SCCN(CC)CC)c5ccccc5nc4c3)ccc12` came in with a TGI of over 100 µM.
In the case of `Cc1ccc(S(=O)(=O)OC[C@@H]2CO2)cc1`, the TGI was over 100 µM.
The compound `C=C(C)C(=O)OC1C/C(CO)=C\C(O)C/C(C)=C/C2OC(=O)C(=C)C21` (stereo not drawn) gave a TGI of 33.4 µM.

For a further test, the system named is A549 NSCLC. The experiment in a line: inhibition of tumour cell growth, NCI panel, 48 h.
Turning to `O=C(CC(=O)c1cccc2ccccc12)C(=O)Nc1ccc(Cl)cc1`, the TGI was over 100 µM.
As for `CCN(CC)CCSc1c2ccccc2nc2cc(NCC(=O)Nc3ccccc3-c3ccccc3NC(=O)CNc3ccc4c(SCCN(CC)CC)c5ccccc5nc4c3)ccc12`, the TGI was over 100 µM.
Regarding `Cc1ccc(S(=O)(=O)OC[C@@H]2CO2)cc1`, the TGI is over 100 µM.
`C=C(C)C(=O)OC1C/C(CO)=C\C(O)C/C(C)=C/C2OC(=O)C(=C)C21` (stereo not drawn): the TGI is over 100 µM.

The next test concerns NCI-H23 lung. The test can be described thus: inhibition of tumour cell growth, NCI panel, 48 h.
In turn, `O=C(CC(=O)c1cccc2ccccc12)C(=O)Nc1ccc(Cl)cc1` showed a TGI of over 100 µM.
Still for that read-out and setting: with `CCN(CC)CCSc1c2ccccc2nc2cc(NCC(=O)Nc3ccccc3-c3ccccc3NC(=O)CNc3ccc4c(SCCN(CC)CC)c5ccccc5nc4c3)ccc12` the figure was over 100 µM; with `Cc1ccc(S(=O)(=O)OC[C@@H]2CO2)cc1`, over 100 µM.

Another test has as its system SF-539 CNS. The experiment in a line: inhibition of tumour cell growth, NCI panel, 48 h.
For the compound `O=C(CC(=O)c1cccc2ccccc12)C(=O)Nc1ccc(Cl)cc1`, the TGI was over 100 µM.
`CCN(CC)CCSc1c2ccccc2nc2cc(NCC(=O)Nc3ccccc3-c3ccccc3NC(=O)CNc3ccc4c(SCCN(CC)CC)c5ccccc5nc4c3)ccc12` came in with a TGI of over 100 µM.
On to `Cc1ccc(S(=O)(=O)OC[C@@H]2CO2)cc1`, for which the TGI was over 100 µM.
As for `C=C(C)C(=O)OC1C/C(CO)=C\C(O)C/C(C)=C/C2OC(=O)C(=C)C21` (stereo not drawn), the TGI is 46.3 µM.

For another test, the system named is MALME-3M melanoma. The experiment in a line: inhibition of tumour cell growth, NCI panel, 48 h.
`O=C(CC(=O)c1cccc2ccccc12)C(=O)Nc1ccc(Cl)cc1` displayed a TGI of over 100 µM.
As for `CCN(CC)CCSc1c2ccccc2nc2cc(NCC(=O)Nc3ccccc3-c3ccccc3NC(=O)CNc3ccc4c(SCCN(CC)CC)c5ccccc5nc4c3)ccc12`, the TGI was over 100 µM.
Take `Cc1ccc(S(=O)(=O)OC[C@@H]2CO2)cc1`: the TGI is over 100 µM.
On to `C=C(C)C(=O)OC1C/C(CO)=C\C(O)C/C(C)=C/C2OC(=O)C(=C)C21` (stereo not drawn), for which the TGI was 39 µM.

In a further test the test system is SNB-78 CNS. The experiment in a line: inhibition of tumour cell growth, NCI panel, 48 h.
In turn, `O=C(CC(=O)c1cccc2ccccc12)C(=O)Nc1ccc(Cl)cc1` displayed a TGI of over 100 µM.
Regarding `Cc1ccc(S(=O)(=O)OC[C@@H]2CO2)cc1`, the TGI is over 100 µM.
Same read-out and setting: with `C=C(C)C(=O)OC1C/C(CO)=C\C(O)C/C(C)=C/C2OC(=O)C(=C)C21` (stereo not drawn) the figure was over 100 µM.

Another test relates to CAKI-1 renal. The experiment in a line: inhibition of tumour cell growth, NCI panel, 48 h.
In turn, `O=C(CC(=O)c1cccc2ccccc12)C(=O)Nc1ccc(Cl)cc1` had a TGI of over 100 µM.
As for `CCN(CC)CCSc1c2ccccc2nc2cc(NCC(=O)Nc3ccccc3-c3ccccc3NC(=O)CNc3ccc4c(SCCN(CC)CC)c5ccccc5nc4c3)ccc12`, the TGI is over 100 µM.
For the compound `Cc1ccc(S(=O)(=O)OC[C@@H]2CO2)cc1`, the TGI is over 100 µM.
In turn, `C=C(C)C(=O)OC1C/C(CO)=C\C(O)C/C(C)=C/C2OC(=O)C(=C)C21` (stereo not drawn) yielded a TGI of 58.7 µM.

The test system of the next test is M14 melanoma. The experiment in a line: inhibition of tumour cell growth, NCI panel, 48 h.
In turn, `O=C(CC(=O)c1cccc2ccccc12)C(=O)Nc1ccc(Cl)cc1` yielded a TGI of over 100 µM.
On to `CCN(CC)CCSc1c2ccccc2nc2cc(NCC(=O)Nc3ccccc3-c3ccccc3NC(=O)CNc3ccc4c(SCCN(CC)CC)c5ccccc5nc4c3)ccc12`, for which the TGI is over 100 µM.
In the case of `Cc1ccc(S(=O)(=O)OC[C@@H]2CO2)cc1`, the TGI was over 100 µM.
In the case of `C=C(C)C(=O)OC1C/C(CO)=C\C(O)C/C(C)=C/C2OC(=O)C(=C)C21` (stereo not drawn), the TGI stood at 40.6 µM.

A further test has as its system RXF 393 renal. The test can be described thus: inhibition of tumour cell growth, NCI panel, 48 h.
As for `CCN(CC)CCSc1c2ccccc2nc2cc(NCC(=O)Nc3ccccc3-c3ccccc3NC(=O)CNc3ccc4c(SCCN(CC)CC)c5ccccc5nc4c3)ccc12`, the TGI was over 100 µM.
Still for that read-out and setting: for `Cc1ccc(S(=O)(=O)OC[C@@H]2CO2)cc1` the value was over 100 µM.

The next test has as its system HCT-15 colon. The experiment in a line: inhibition of tumour cell growth, NCI panel, 48 h.
Compound `O=C(CC(=O)c1cccc2ccccc12)C(=O)Nc1ccc(Cl)cc1` showed a TGI of over 100 µM.
As to `CCN(CC)CCSc1c2ccccc2nc2cc(NCC(=O)Nc3ccccc3-c3ccccc3NC(=O)CNc3ccc4c(SCCN(CC)CC)c5ccccc5nc4c3)ccc12`, the TGI was over 100 µM.
With `Cc1ccc(S(=O)(=O)OC[C@@H]2CO2)cc1`, the TGI is over 100 µM.
On the same count and under the same terms, with `C=C(C)C(=O)OC1C/C(CO)=C\C(O)C/C(C)=C/C2OC(=O)C(=C)C21` (stereo not drawn) the figure was 29.6 µM.

A further test deals with ACHN renal. The test can be described thus: inhibition of tumour cell growth, NCI panel, 48 h.
Compound `O=C(CC(=O)c1cccc2ccccc12)C(=O)Nc1ccc(Cl)cc1` registered a TGI of over 100 µM.
As for `CCN(CC)CCSc1c2ccccc2nc2cc(NCC(=O)Nc3ccccc3-c3ccccc3NC(=O)CNc3ccc4c(SCCN(CC)CC)c5ccccc5nc4c3)ccc12`, the TGI was over 100 µM.
With `Cc1ccc(S(=O)(=O)OC[C@@H]2CO2)cc1`, the TGI was over 100 µM.
The same measure, in the same setting: for `C=C(C)C(=O)OC1C/C(CO)=C\C(O)C/C(C)=C/C2OC(=O)C(=C)C21` (stereo not drawn) the value was 48.4 µM.

The next test relates to NCI-H522 lung. The experiment in a line: inhibition of tumour cell growth, NCI panel, 48 h.
Consider `O=C(CC(=O)c1cccc2ccccc12)C(=O)Nc1ccc(Cl)cc1`, for which the TGI was over 100 µM.
In turn, `CCN(CC)CCSc1c2ccccc2nc2cc(NCC(=O)Nc3ccccc3-c3ccccc3NC(=O)CNc3ccc4c(SCCN(CC)CC)c5ccccc5nc4c3)ccc12` returned a TGI of over 100 µM.
As to `C=C(C)C(=O)OC1C/C(CO)=C\C(O)C/C(C)=C/C2OC(=O)C(=C)C21` (stereo not drawn), the TGI worked out at 30.3 µM.

The next test concerns CCRF-CEM leukemia. The test can be described thus: inhibition of tumour cell growth, NCI panel, 48 h.
`O=C(CC(=O)c1cccc2ccccc12)C(=O)Nc1ccc(Cl)cc1`: the TGI was over 100 µM.
For `CCN(CC)CCSc1c2ccccc2nc2cc(NCC(=O)Nc3ccccc3-c3ccccc3NC(=O)CNc3ccc4c(SCCN(CC)CC)c5ccccc5nc4c3)ccc12`, the TGI worked out at 96.9 µM.
`Cc1ccc(S(=O)(=O)OC[C@@H]2CO2)cc1` yielded a TGI of over 100 µM.
Compound `C=C(C)C(=O)OC1C/C(CO)=C\C(O)C/C(C)=C/C2OC(=O)C(=C)C21` (stereo not drawn) returned a TGI of 36.6 µM.

The subject of the next test is COLO 205 colon. The test can be described thus: inhibition of tumour cell growth, NCI panel, 48 h.
In turn, `O=C(CC(=O)c1cccc2ccccc12)C(=O)Nc1ccc(Cl)cc1` had a TGI of over 100 µM.
`CCN(CC)CCSc1c2ccccc2nc2cc(NCC(=O)Nc3ccccc3-c3ccccc3NC(=O)CNc3ccc4c(SCCN(CC)CC)c5ccccc5nc4c3)ccc12` displayed a TGI of over 55.3 µM.
